Data as given in ChEMBL document CHEMBL1201862, “PubChem BioAssay data set” (2004).
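Step 1: Grow cells in 96-well plates. Step 2: Expose to compound for 48 hours at 5 concentrations. Step 3: Interpolate endpoints linearly; if unreached, use highest concentration. GI50 marks 50% less growth.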 Calls of active or inactive are those of the source. No stated cut-off is given here; in the data, active = GI50 up to about 1.1 µM and inactive = higher.

Experiments:
Test in all cases: growth of human tumour cells (NCI), 48 h
[1] = tested on: MDA-MB-435
[2] = tested on: NCI/ADR-RES
[3] = tested on: NCI-H23
[4] = tested on: Malme-3M
[5] = tested on: UO-31
[6] = tested on: OVCAR-8
[7] = tested on: HCT-15
[8] = tested on: HL-60
[9] = tested on: NCI-H226
[10] = tested on: CCRF-CEM
[11] = tested on: SK-OV-3
[12] = tested on: DU-145
[13] = tested on: T47D
[14] = tested on: A549
[15] = tested on: SN12C
[16] = tested on: MDA-MB-231
[17] = tested on: SF-268
[18] = tested on: MOLT-4
[19] = tested on: SR
[20] = tested on: CAKI-1

| SMILES | GI50 [1] | GI50 [2] | GI50 [3] | GI50 [4] | GI50 [5] | GI50 [6] | GI50 [7] [µM] | GI50 [8] | GI50 [9] | GI50 [10] | GI50 [11] | GI50 [12] | GI50 [13] | GI50 [14] | GI50 [15] | GI50 [16] | GI50 [17] | GI50 [18] | GI50 [19] | GI50 [20] |
| --- | --- | --- | --- | --- | --- | --- | --- | --- | --- | --- | --- | --- | --- | --- | --- | --- | --- | --- | --- | --- |
| O=C(O)c1nn[nH]c1Cl | > 100 µM (inactive) | > 100 µM (inactive) | > 100 µM (inactive) | > 100 µM (inactive) | > 100 µM (inactive) | > 100 µM (inactive) | > 100 | > 100 µM (inactive) | > 100 µM (inactive) | > 100 µM (inactive) | > 100 µM (inactive) | > 100 µM (inactive) | > 100 µM (inactive) | > 100 µM (inactive) | > 100 µM (inactive) | > 100 µM (inactive) | > 100 µM (inactive) | > 10 µM (inactive) | – | – |
| Cc1c2c(n3c(nc4ccccc43)c1C#N)N(c1ccc(F)cc1)CC2 | > 100 µM (inactive) | > 100 µM (inactive) | > 100 µM (inactive) | > 100 µM (inactive) | > 100 µM (inactive) | > 100 µM (inactive) | > 100 | > 100 µM (inactive) | > 100 µM (inactive) | > 100 µM (inactive) | 74.5 µM (inactive) | > 100 µM (inactive) | – | > 100 µM (inactive) | > 100 µM (inactive) | – | > 100 µM (inactive) | – | > 100 µM (inactive) | > 100 µM (inactive) |
| COc1ccc(-c2nc(-c3cnccn3)n(C3OC(CO)C(O)C3O)n2)cc1 (stereo not given) | > 10 µM (inactive) | > 10 µM (inactive) | > 10 µM (inactive) | > 10 µM (inactive) | > 10 µM (inactive) | > 10 µM (inactive) | > 10 | > 10 µM (inactive) | > 10 µM (inactive) | > 10 µM (inactive) | > 10 µM (inactive) | – | – | > 10 µM (inactive) | > 10 µM (inactive) | – | > 10 µM (inactive) | > 10 µM (inactive) | > 10 µM (inactive) | – |
| CC(OC1CC(=O)CC2C(=O)C=CC(=O)C12)c1ccccc1 (stereo not given) | – | – | 18.1 µM (inactive) | 20.4 µM (inactive) | 16 µM (inactive) | 15.3 µM (inactive) | 17.1 | 3.25 µM (inactive) | 20 µM (inactive) | 2.67 µM (inactive) | > 42.2 µM (inactive) | – | – | 19.1 µM (inactive) | 19 µM (inactive) | – | 21.2 µM (inactive) | 4.97 µM (inactive) | 19.1 µM (inactive) | 16.9 µM (inactive) |
| O/N=C1\CC2(N3CCOCC3)CCC1(c1ccccc1)CC2 | > 100 µM (inactive) | > 100 µM (inactive) | > 100 µM (inactive) | > 100 µM (inactive) | > 100 µM (inactive) | > 100 µM (inactive) | > 100 | > 100 µM (inactive) | > 100 µM (inactive) | > 100 µM (inactive) | > 100 µM (inactive) | > 100 µM (inactive) | > 100 µM (inactive) | > 100 µM (inactive) | > 100 µM (inactive) | – | > 100 µM (inactive) | > 100 µM (inactive) | > 100 µM (inactive) | > 100 µM (inactive) |
| OCC(O)C(O)C(C=NNc1ncnc2ccc(Br)cc12)=NNc1ncnc2ccc(Br)cc12 (stereo not given) | 4.79 µM (inactive) | – | – | 1.84 µM (inactive) | 9.71 µM (inactive) | 1.72 µM (inactive) | – | 0.325 µM (active) | 2.12 µM (inactive) | – | 2.59 µM (inactive) | – | 0.413 µM (active) | 6.3 µM (inactive) | 6.84 µM (inactive) | 1.26 µM (inactive) | 1.16 µM (inactive) | 0.282 µM (active) | 0.579 µM (active) | 2.22 µM (inactive) |
| Cn1c(=O)oc2cc(C(=S)N3CCC(Cc4ccccc4)CC3)ccc21 | 91.8 µM (inactive) | > 100 µM (inactive) | > 100 µM (inactive) | > 100 µM (inactive) | – | > 100 µM (inactive) | > 100 | > 100 µM (inactive) | > 100 µM (inactive) | > 100 µM (inactive) | > 100 µM (inactive) | > 100 µM (inactive) | – | – | > 100 µM (inactive) | > 100 µM (inactive) | > 100 µM (inactive) | 48.1 µM (inactive) | 72.3 µM (inactive) | > 100 µM (inactive) |
| CC(C)(C)OC(=O)NC(Cc1ccc(OCc2ccccc2)cn1)C(N)=O (stereo not given) | > 100 µM (inactive) | 89.9 µM (inactive) | 86.5 µM (inactive) | > 100 µM (inactive) | 82.6 µM (inactive) | > 100 µM (inactive) | 54.7 | > 100 µM (inactive) | 97.3 µM (inactive) | > 100 µM (inactive) | – | > 100 µM (inactive) | – | > 100 µM (inactive) | > 100 µM (inactive) | > 100 µM (inactive) | > 100 µM (inactive) | > 10 µM (inactive) | > 100 µM (inactive) | > 100 µM (inactive) |
